Experimental findings from US11078201B2, “Substituted isoindolin-1-ones and 2,3-dihydro-1H-pyrrol[3,4-c]pyridin-1-ones as HPK1 antagonists” (Nimbus Saturn, Inc., priority 2019, dated 2021) are described below.

This assay addresses HPK1 (Homo sapiens (Human), UniProt Q92918). Briefly: HPK1 biochemical enzyme assay (microfluidic mobility shift assay). The settings on record: 1.5 nM HPK1, ATP 1 mM final, 60 min at RT, Caliper EZ Reader; read-out: HPK1 1000UMATP caliper IC50. As to the method: HPK1 biochemical enzyme assay: HPK1 enzyme inhibition was measured using a microfluidic mobility shift assay. […] Test compounds were titrated in ten point curves (top final assay concentration […]), and preincubated with enzyme/substrate mix for 30 min prior to initiation of the reaction by addition of ATP (1 mM final concentration) and substrate (1 μM final concentration; Carna Biosciences) diluted in assay buffer supplemented by MgCl2 (final assay concentration of 5 mM). Following 60 min incubation at RT, the reaction was terminated by addition of 60 µl/well termination buffer (Carna Biosciences) and signal determination using a Caliper EZ Reader (Perkin Elmer, UK).
The compound numbers correspond to the compound numbers in Table 1.

The IC50 is the concentration needed to halve the response being measured.

HPK1, sequence (Q92918 whole entry): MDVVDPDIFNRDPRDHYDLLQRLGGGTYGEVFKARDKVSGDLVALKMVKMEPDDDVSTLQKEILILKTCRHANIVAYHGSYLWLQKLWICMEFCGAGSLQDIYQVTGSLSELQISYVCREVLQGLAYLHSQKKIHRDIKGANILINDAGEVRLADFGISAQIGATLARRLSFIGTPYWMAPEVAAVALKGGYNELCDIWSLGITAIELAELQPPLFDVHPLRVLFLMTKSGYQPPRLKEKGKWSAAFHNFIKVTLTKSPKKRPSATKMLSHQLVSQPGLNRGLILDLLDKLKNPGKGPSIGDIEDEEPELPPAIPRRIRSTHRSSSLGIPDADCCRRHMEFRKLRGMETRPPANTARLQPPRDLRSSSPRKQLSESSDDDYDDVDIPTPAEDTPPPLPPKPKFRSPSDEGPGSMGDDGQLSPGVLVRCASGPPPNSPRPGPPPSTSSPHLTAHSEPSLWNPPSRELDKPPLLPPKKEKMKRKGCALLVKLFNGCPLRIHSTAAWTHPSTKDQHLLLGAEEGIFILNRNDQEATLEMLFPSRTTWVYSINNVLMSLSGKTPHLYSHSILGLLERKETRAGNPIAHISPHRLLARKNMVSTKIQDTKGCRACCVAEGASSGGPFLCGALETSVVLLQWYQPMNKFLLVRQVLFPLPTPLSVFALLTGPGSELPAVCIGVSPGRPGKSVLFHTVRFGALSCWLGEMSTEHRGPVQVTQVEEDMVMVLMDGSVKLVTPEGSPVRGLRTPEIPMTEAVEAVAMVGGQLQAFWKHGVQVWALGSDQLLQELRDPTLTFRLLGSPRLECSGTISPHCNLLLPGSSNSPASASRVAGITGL

As to “4-(8-fluoro-7- methyl-imidazo[1,2- a]pyridin-3- yl)-7-[[5- (morpholino- methyl)-2- pyridyl]amino] isoindolin-1-one [I-468]”, the half-maximal inhibitory concentration (IC50) is below 100 nM.

For “4-[7-(hydroxymeth- yl)imidazo[1,2- a]pyridin-3- yl]-7-[(5- morpholino-2- pyridyl)amino] isoindolin-1-one [I-196]”, the concentration for half-maximal inhibition (IC50) is below 100 nM.
